Format in all cases: cell-based
The test system of assay [1] is Neospora caninum tachyzoites. Kind of assay: Screening of compounds against Neospora caninum cell cultures in vitro (microscopic evaluation of infected host cell monolayer). As to conditions: VERO or ED host cells, evaluation 4 days after treatment. The arrangement: key: 0 = no effect; 1 = weak effect; 2 = full effect; T = cytotoxic. How it is done:
(a) Screening of compounds against Neospora Caninum cell cultures in vitro.
Screening was conducted in 96-well plates (Falcon 3872). A monolayer of host cells (VERO or ED) were placed on a cell culture plate. Non-infected monolayers of cells were cultured in two 50 ml tissue culture bottles (50 cm^3 cell culture area). The cell layer was detached with trypsin-EDTA (5 ml. Gibco 45300-019) in a CO2-culture cupboard at 37°C. After 10 minutes, most of the cells were detached. The cells were transferred with a 5 ml pipette into a 50 ml centrifuge tube (Greiner, B769331) containing about 1 ml warmed fetal calf serum. After centrifugation for 5 minutes at 1500 rpm (Varifuge 3.0, Heraeus), the liquid was removed and the cell pellet suspended in RPMI medium (100 ml, 95% RPMI 1640, 2% FCS, 1% L-glutamine, 1% sodium hydrogen carbonate, 1% penicillin/streptomycin). The cell suspension was pipetted into six 96-well plates at 150 µl per well. The coated cell culture plates were placed in an incubation cupboard at 37°C under 5% CO2 for 24 hours. The cells were then infected with Neospora caninum tachyzoites at a concentration of 48,000 tachyzoites per well. This was followed by incubation at 37°C under 5% CO2 for 24 hours.
The test compounds (0.5 - 1.5 mg) were weighed into 1.5 ml eppendorf vessels and dissolved in 1 ml dimethyl sulphoxide, corresponding to a dilution of about 1 x 10^-3 g ml^-1. The medium used for further dilution consisted of 87% RPMI 1640, 10% FCS, 1% L-glutamine, 1% sodium hydrogen carbonate, 1% penicillin/streptomycin. In the first screening, concentrations of 10^-5, 10^-6 and 10^-7 g ml^-1 were used. The diluted preparations were then transferred to the cell culture plates at a volume of 150 µl per well after 24 hour infection with Neospora caninum. For the first row, untreated medium was used; this row contained infected and uninfected cells as controls. The cell plate was incubated at 37°C under 5% CO2 for 5 days. Microscopic evaluation was conducted 4 days after treatment and 5 days after infection at a magnification of 25 x 10 in an inverse microscope according to the following evaluation scheme.

In assay [2] the test system is Eimeria tenella. Kind of assay: Screening of compounds against Eimeria tenella cell cultures in vitro (chick kidney cell monolayers, microscopic evaluation). As to conditions: chick kidney cells, day 5 post infection. How it is done: (b) Screening of Compounds again Eimeria Tenella cell cultures in vitro
Cells from kidneys of 19 day old chicks are cultured as monolayers in 96-well plates (Falcon 3872) in a medium of Hanks lactalbumine hydrolysate, 5% fetal calf serum, 1% glutamine and 1% non-essential amino acids. After two days at 42°C under 5% CO2, the culture was infected with excised sporozoites of Eimeria tenella at about […] per well. Test compounds were dissolved in DMSO and diluted with culture medium to a maximum end concentration of 10µg ml^-1. The dilution steps were 1:10. On day 5 post infection, the cultures were evaluated under a microscope at 100-fold magnification and the condition of the host cells and the amount of intact schizonts and free merozoites was determined.

For assay [3], the system named is Plasmodium Falciparum D6 Strain (Chloroquine sensitive). Kind of assay: In vitro screening against Plasmodium falciparum, radiolabelled hypoxanthine incorporation, D6 strain. The conditions noted are these: for IC50 / IC90: Plasmodium falciparum; for IC50: read-out: In vitro activity: IC50; for IC90: read-out: In vitro activity: IC90. An excerpt:
(§1) (c) In Vitro Screening against Plasmodium Falciparum
Two parasite strains - W2 resistant to chloroquine, and D6 sensitive to chloroquine but resistant to mefloquine were used. In Table IV below, the best compounds should show no cross resistance between the two strains.
(§2) The assay relies on incorporation of radiolabelled hypoxanthine by the parasite and inhibition of incorporation is attributed to activity of known or candidate antimalarial drugs. For each assay, proven antimalarials such as chloroquine, mefloquine, quinine, artemisinin and pyrimethamine were used as controls. The incubation period was 66 hours, and the starting parasitemia was 0.2% with 1% hematocrit. The medium was an RPMI-1640 culture with no folate or p-aminobenzoic acid. Albumax rather than 10% normal heat inactivated human plasma was used as, with Albumax, less protein binding is observed, and compounds elicit slightly higher activities in this model. If a compound was submitted with no prior knowledge of activity, it was dissolved directly in dimethyl sulphoxide (DMSO), and diluted 400 fold with complete culture medium. The unknown compound was started at a maximum concentration of 50,000 ng ml^-1 and sequentially diluted 2-fold for 11 times to give a concentration range of 1048 fold. These dilutions were performed automatically by a Biomek 1000 Liquid Handling System in 96-well microtiter plates. The diluted drugs were then transferred to test plates, 200 µl of parasitized erythrocytes were added, and incubated at 37°C in a controlled environment of 5% CO2, 5% O2 and 90% N2. After 42 hours, 25 µl of ^3H-hypoxanthine was added, and the plates incubated for an additional 24 hours. After 66 hours, the plates were frozen at -70°C to lyse the red cells, and then thawed and harvested onto glass fiber filter mats in a 96-well harvester. The filter mats were then counted in a scintillation counter. For each drug, the concentration response profile was determined and 50%, 90% and 10% inhibitory concentrations (IC50, IC90 and IC10) were determined by a non-linear logistic dose response analysis program.
(§3) A prescreen format can be used wherein a 3-dilution assay may be used to determine activity at high medium or low concentrations. The concentrations were selected as 50,000, 500 and 50 ng ml^-1. These were performed in duplicate on a 96-well format plate with 14 test compounds and one known (standard) compound per plate. The system was automated with a Biomek diluter for mixing and diluting the drugs, and adding drugs and parasites to a test plate.
In the prescreen format, if the ANALYSIS FIELD (AF) has a "<", then the compound was "very active" and the IC values are most likely to be below the last dilution value (in nanograms/ml), which is listed next to AF. In most cases, these compounds were run again at lower starting concentration to determine the true IC value. If the AF has a ">", then the IC value is greater than the prescreen dilution value; thus "AF>250" means that the IC value is greater than 250 ng ml^-1 and no further screening is carried out. In such cases, values of 0.00 are entered for IC values.

Assay [4] deals with Plasmodium Falciparum W2 Strain (Chloroquine resistant). Kind of assay: In vitro screening against Plasmodium falciparum, radiolabelled hypoxanthine incorporation, W2 strain. As to conditions: for IC50 / IC90: Plasmodium falciparum; for IC50: read-out: In vitro activity: IC50; for IC90: read-out: In vitro activity: IC90. How it is done: as §1
Two parasite strains - W2 resistant to chloroquine, and D6 sensitive to chloroquine but resistant to mefloquine were used.
as §2, with “Albumax rather than 10% normal heat inactivated human plasma was used as, with Albumax, less protein binding is observed, and compounds elicit slightly higher activities in this model.” left out, “The unknown compound was started at a maximum concentration of 50,000 ng ml^-1 and sequentially diluted 2-fold for 11 times to give a concentration range of 1048 fold.” left out
as §3
In the prescreen format, if the […] […] If the AF has a ">", then the IC value is greater than the prescreen dilution value; thus "AF>250" means that the IC value is greater than 250 ng ml^-1 and no further screening is carried out. In such cases, values of 0.00 are entered for IC values.

Setting [5] is: D6 Strain (Chloroquine sensitive), 66 hours incubation.

SMILES strings stand for the structures. In brackets after ≈: the same amount, converted by molar mass. Where two headings read alike, the source gives them in different places.

On to `C[C@H]1[C@H](OC(=O)CCC(=O)[O-])O[C@@H]2O[C@@]3(C)CC[C@H]4[C@H](C)CC[C@@H]1[C@@]24OO3.[Na+]` [Sodium Artesunate, sodium artesunate], for which the “Evaluation (observable effect)” value in assay [1] (Dose 10^-5 g/ml) amounted to 2; in assay [1] (Dose 10^-6 g/ml) it was 0. Further, the “Evaluation (effectiveness)” value in assay [2] (Dose 10^-6 g/ml) was 2 (2 = active); in assay [2] (Dose 10^-7 g/ml), 2 (2 = active); in assay [2] (Dose 10^-8 g/ml) it was 0 (0 = inactive).
As for `CC(=O)O[C@@H]1O[C@@H]2O[C@@]3(C)CC[C@H]4[C@H](C)CC[C@@H]([C@H]1C)[C@@]24OO3` [Example 1, 10-dihydroartemisinyl ethanoate], the “In vitro activity: (IC10)” value in assay [3] (setting [5]) was 127.91 ng/mL; in assay [4] (W2 Strain (Chloroquine resistant), 66 hours incubation) it was 86.88 ng/mL. The IC50 was determined as 172 ng/mL (≈ 526 nM) in assay [3] (D6, 66 h) and 119 ng/mL (≈ 365 nM) in assay [4] (W2, 66 h). Besides, the IC90 in assay [3] (D6, 66 h) is 231 ng/mL (≈ 706 nM); in assay [4] (W2, 66 h), 163 ng/mL (≈ 500 nM). The figures for the “Evaluation (observable effect)” value in assay [1] (Dose 10^-5 g/ml), in assay [1] (Dose 10^-6 g/ml) and in assay [1] (Dose 10^-7 g/ml) were 2, 1 and 0, respectively. Also, the “Evaluation (effectiveness)” value in assay [2] (Dose 10^-7 g/ml) was 1 (1 = weakly active); in assay [2] (Dose 10^-8 g/ml), 0 (0 = inactive).
For `C[C@H]1[C@@H](OC(=O)c2ccccc2)O[C@@H]2O[C@@]3(C)CC[C@H]4[C@H](C)CC[C@@H]1[C@@]24OO3` [Example 2, 10β-dihydroartemisinyl benzoate], the “In vitro activity: (IC10)” value in assay [3] (setting [5]) was 0.02 ng/mL; in assay [4] (W2, 66 h), 0.03 ng/mL. In addition, the 50% inhibitory concentration (IC50) is 0.03 ng/mL (≈ 0.0772 nM) in assay [3] (setting [5]) and 0.07 ng/mL (≈ 0.18 nM) in assay [4] (W2, 66 h). Also, the IC90 in assay [3] (setting [5]) turned out to be 0.03 ng/mL (≈ 0.0772 nM); in assay [4] (W2, 66 h), 0.21 ng/mL (≈ 0.541 nM). Moreover, the “Evaluation (observable effect)” value in assay [1] (Dose 10^-5 g/ml) came out at 2; in assay [1] (Dose 10^-6 g/ml), 1; in assay [1] (Dose 10^-7 g/ml), 0. Besides, the results for the “Evaluation (effectiveness)” value in assay [2] (Dose 10^-5 g/ml), in assay [2] (Dose 10^-6 g/ml) and in assay [2] (Dose 10^-7 g/ml) were 2 (2 = active), 2 (2 = active) and 0 (0 = inactive), respectively.
Regarding `C[C@@H]1CC[C@H]2[C@@H](C)C(=O)O[C@@H]3O[C@@]4(C)CC[C@@H]1[C@]32OO4` [Artemisinin, artemisinin], the “Evaluation (observable effect)” value in assay [1] (Dose 10^-5 g/ml) is listed as 0. Further, the “Evaluation (effectiveness)” value in assay [2] (Dose 10^-5 g/ml) is 2 (2 = active); in assay [2] (Dose 10^-6 g/ml) it was 1 (1 = weakly active); in assay [2] (Dose 10^-7 g/ml) it was 0 (0 = inactive).
For the compound `C[C@H]1[C@@H](OC(=O)c2ccc3c(c2)C(=O)c2ccccc2C3=O)O[C@@H]2O[C@@]3(C)CC[C@H]4[C@H](C)CC[C@@H]1[C@@]24OO3` [Example 7], in assay [3] (setting [5]), the “In vitro activity: (IC10)” value worked out at 0.27 ng/mL, the IC50 amounted to 0.44 ng/mL (≈ 0.849 nM) and the IC90 was determined as 0.71 ng/mL (≈ 1.37 nM). In assay [4] (W2, 66 h), the IC50 was 0.48 ng/mL (≈ 0.926 nM), the concentration for an effect of 90% (IC90) worked out at 1.1 ng/mL (≈ 2.12 nM) and the “In vitro activity: (IC10)” value amounted to 0.21 ng/mL.

By IC50 is commonly meant the midpoint of a concentration-inhibition curve. In general, IC90 refers to the point of the concentration-response curve where the effect stands at 90%.

For the origin of these results see patent EP0974594A1, “Artemisinin derivatives as anti-infective agent” (The Hong Kong University of Science & Technology, priority 1998, dated 2000).
